Measured values published in US20120252796A1, “COMPOUNDS FOR THE TREATMENT OF DYSLIPIDEMIA AND RELATED DISEASES” (priority 2009, published 2012).

Biological target: PCSK9 (Homo sapiens, UniProt Q8NBP7)
Assay: PCSK9-LDLR in vitro Binding Assay (ELISA)
Protocol: The PCSK9-LDLR in vitro Binding Assay is a quantitative solid phase binding assay between PCSK9 and recombinant LDLR. Plates were pre-coated with a recombinant LDLR-AB domain, which binds PCSK9. Test compound at different concentration was added to the PCSK9 and added to LDLR immobilized on the wells. The amount of bound PCSK9 is measured by binding it with biotinylated anti-His-tag monoclonal antibody, followed by binding with horseradish peroxidase conjugated streptavidin substrate. The color was quantified by ELISA reader at […] which reflects the relative amount of PCSK9 that binds to LDLR in presence and absence of the inhibitor. EC50 values were calculated by nonlinear regression analysis using graph pad prism software. Each concentration point represents values in duplicates.

Chain of PCSK9 (Q8NBP7 153-692): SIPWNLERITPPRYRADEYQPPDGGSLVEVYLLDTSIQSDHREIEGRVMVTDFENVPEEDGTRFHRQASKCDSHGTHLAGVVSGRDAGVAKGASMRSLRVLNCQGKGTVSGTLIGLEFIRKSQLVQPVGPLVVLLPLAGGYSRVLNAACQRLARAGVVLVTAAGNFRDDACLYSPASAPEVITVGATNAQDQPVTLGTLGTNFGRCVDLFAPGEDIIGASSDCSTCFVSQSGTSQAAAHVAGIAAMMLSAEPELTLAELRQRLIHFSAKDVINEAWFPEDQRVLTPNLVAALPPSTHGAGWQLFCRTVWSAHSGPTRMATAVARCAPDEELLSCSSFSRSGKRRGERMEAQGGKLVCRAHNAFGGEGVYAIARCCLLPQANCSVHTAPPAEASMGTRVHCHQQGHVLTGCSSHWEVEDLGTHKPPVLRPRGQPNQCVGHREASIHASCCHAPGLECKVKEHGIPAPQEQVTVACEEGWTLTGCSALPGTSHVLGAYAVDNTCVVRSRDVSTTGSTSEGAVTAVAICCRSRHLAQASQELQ
Chain of PCSK9 (Q8NBP7 31-152 partner limits assumed): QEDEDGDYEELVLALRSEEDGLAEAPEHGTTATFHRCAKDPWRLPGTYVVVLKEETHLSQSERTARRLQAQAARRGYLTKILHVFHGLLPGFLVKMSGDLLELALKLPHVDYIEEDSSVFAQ

| SMILES | % Inhibition PCSK9 (Concentration 1 μM, 1 µM) [%] | % Inhibition PCSK9 (Concentration 10 μM, 10 µM) [%] | % Inhibition PCSK9 (Concentration 100 μM, 100 µM) [%] | also measured |
| --- | --- | --- | --- | --- |
| Cc1ccc(-c2nc(CC3COC(C)(C(=O)N4CCOCC4)OC3)c(C)o2)cc1 (stereo not drawn) [Example 66, (2-methyl-5-c-((5-methyl-2-(p-tolyl)oxazol-4-yl)methyl)-1,3-dioxan-2-yl)(morpholino)methanone] | 23 | 25 | 31 |  |
| Cc1ccc(-c2nc(CC3COC(C)(C(=O)N4CCOCC4)OC3)c(C)o2)cc1 (stereo not drawn) [Example 67, (2-methyl-5-t-((5-methyl-2-(p-tolyl)oxazol-4-yl)methyl)-1,3-dioxan-2-yl)(morpholino)methanone] | 3 | 21 | 25 |  |
| Cc1oc(C(C)(C)C)nc1CC1COC(C)(C(=O)NO)OC1 (stereo not drawn) [Example 72, 5-((2-(tert-butyl)-5-methyloxazol-4-yl)methyl)-N-hydroxy-2-methyl-1,3-dioxane-2-carboxamide] |  |  |  | inhibition at 5 µM (Concentration 5 μM): 11%; inhibition at 100 µM (Concentration 100 μM): 25%; inhibition at 110 µM (Concentration 110 μM): 20% |
| Cc1ccc(-c2nc(CC3COC(C)(C(=O)NCC4CCOCC4)OC3)c(C)o2)s1 (stereo not drawn) [Example 74, 2-methyl-5-c-((5-methyl-2-(5-methylthiophen-2-yl)oxazol-4-yl)methyl)-N—((tetrahydro-2H-pyran-4-yl)methyl)-1,3-dioxane-2-carboxamide] | 4 | 15 | 27 |  |
| Cc1ccc(-c2nc(CC3COC(C)(C(=O)NCC4CCOCC4)OC3)c(C)o2)s1 (stereo not drawn) [Example 75, 2-methyl-5-t-((5-methyl-2-(5-methylthiophen-2-yl)oxazol-4-yl)methyl)-N—((tetrahydro-2H-pyran-4-yl)methyl)-1,3-dioxane-2-carboxamide] | 15 | 11 | 20 |  |
| Cc1ccc(-c2nc(CC3COC(C)(C(=O)N4CCOCC4)OC3)c(C)o2)s1 (stereo not drawn) [Example 76] |  | 17 | 27 | % Inhibition PCSK9 (Concentration 1 μM): 6% |
| Cc1ccc(-c2nc(CC3COC(C)(C(=O)N4CCOCC4)OC3)c(C)o2)s1 (stereo not drawn) [Example 77] |  | 14 | 16 |  |
| Cc1oc(-c2ccncc2)nc1CC1COC(C)(C(=O)NO)OC1 (stereo not drawn) [Example 81, N-hydroxy-2-methyl-5-t-((5-methyl-2-(pyridin-4-yl)oxazol-4-yl)methyl)-1,3-dioxane-2-carboxamide] | 7 | 12 | 23 |  |
| Cc1oc(-c2ccncc2)nc1CC1COC(C)(C(=O)N2CCOCC2)OC1 (stereo not drawn) [Example 82, (2-methyl-5-c-((5-methyl-2-(pyridin-4-yl)oxazol-4-yl)methyl)-1,3-dioxan-2-yl)(morpholino)methanone] | 13 | 20 |  | % Inhibition PCSK9 (Concentration 100 μM): 42% |
| Cc1oc(-c2ccncc2)nc1CC1COC(C)(C(=O)N2CCOCC2)OC1 (stereo not drawn) [Example 83, (2-methyl-5-t-((5-methyl-2-(pyridin-4-yl)oxazol-4-yl)methyl)-1,3-dioxan-2-yl)(morpholino)methanone] | 20 | 25 |  | % Inhibition PCSK9 (Concentration 100 μM): 42% |
| Cc1oc(-c2ccncc2)nc1CC1COC(C)(C(=O)NCC(=O)N2CCOCC2)OC1 (stereo not drawn) [Example 87, 2-methyl-5-t-((5-methyl-2-(pyridin-4-yl)oxazol-4-yl)methyl)-N-(2-morpholino-2-oxoethyl)-1,3-dioxane-2-carboxamide] |  | 12 | 7 |  |
| Cc1oc(-c2ccncc2)nc1CC1COC(C)(C(=O)NCC(=O)NCC2CCOCC2)OC1 (stereo not drawn) [Example 88, 2-methyl-5-c-((5-methyl-2-(pyridin-4-yl)oxazol-4-yl)methyl)-N-(2-oxo-2-(((tetrahydro-2H-pyran-4-yl)methyl)amino)ethyl)-1,3-dioxane-2-carboxamide] |  | 10 | 15 |  |
